The values that follow are results of earlier work, collected in patent US5331009A, “Pharmaceutical compositions for treating adrenoleukodystrophy” (Croda International plc, priority 1988, dated 1994).

SMILES strings stand for the structures.

For the series, the system named is ALD patients.

Consider `CCCCCCCC/C=C\CCCCCCCC(=O)OCC(COC(=O)CCCCCCC/C=C\CCCCCCCC)OC(=O)CCCCCCC/C=C\CCCCCCCC` [glyceryl trioleate], for which the “C26:0 body levels” value (very long chain fatty acids omitted from diet, glyceryl trioleate used alone) is “reductions can occur”.

Consider `CCCCCCCC/C=C\CCCCCCCC(=O)O` [oleic acid (C18:1), oleic acid], for which the “therapeutic benefit of administration to ALD patients” value (Rizzo, Neurology 36 (1986) 357, Moser, Ann. Neurol. 21, 1987) is on record as “generally therapeutically advantageous”.
